What all share (format): in vivo, BALB/c mice
Assay [1] relates to anti-OVA-specific IgG1 subclass antibody. In words: Adjuvant activity test: anti-OVA-specific IgG1 subclass antibody in serum of OVA-immunized mice (ELISA). The following applies: after primary immunization, serum 2 weeks later; OVA 5 μg + compound 0.256 μmol in 5% αCD-added saline (Addavax mixed with saline at 1:1), dorsal-subcutaneous; compared to OVA single administration group.

In assay [2] the test system is anti-OVA-specific IgG2a subclass antibody. The assay is described as follows: Adjuvant activity test: anti-OVA-specific IgG2a subclass antibody in serum of OVA-immunized mice (ELISA). The following applies: after primary immunization, serum 2 weeks later; OVA 5 μg + compound 0.256 μmol in 5% αCD-added saline (Addavax mixed with saline at 1:1), dorsal-subcutaneous; compared to OVA single administration group. In general terms: ELISA stands for enzyme-linked immunosorbent assay.

Assay [3] relates to anti-OVA-specific IgG1 and IgG2a subclass antibody production. The assay is described as follows: Evaluation test of adjuvant activity (overall conclusion from anti-OVA IgG1 and IgG2a production). The following applies: compound 0.256 μmol in 5% αCD-added saline with OVA 5 μg, dorsal-subcutaneous. As for the experimental part: 8-Week-old female BALB/c mice were divided into groups (N=6), and each group was primarily immunized by dorsal-subcutaneous administration of (1) ovalbumin (OVA) (5 μg) dissolved in saline as an antigen (OVA single administration group), (2) OVA 5 μg and Addavax™ (mixed with saline at 1:1) dissolved in saline (Addavax™ administration group) as positive control adjuvant, (3) OVA 5 μg and SZ137 0.256 μmol dissolved or dispersed in 5% α-cyclodextrin (hereinafter to be simply referred to as αCD)-added saline (SZ137 administration group), (4) OVA (5 μg) and SZ138 (0.256 μmol) dissolved or dispersed in 5% αCD-added saline (SZ138 administration group), (5) OVA (5 μg) and SZ142 (0.256 μmol) dissolved or dispersed in 5% αCD-added saline (SZ142 administration group), (6) OVA (5 μg) and SZ144 (0.256 μmol) dissolved or dispersed in 5% αCD-added saline (SZ144 administration group), (7) OVA (5 μg) and SZ145 (0.256 μmol) dissolved or dispersed in 5% αCD-added saline (SZ145 administration group), (8) OVA (5 μg) and SZ146 (0.256 μmol) dissolved or dispersed in 5% αCD-added saline (SZ146 administration group), (9) OVA (5 μg) and SZ147 (0.256 μmol) dissolved or dispersed in 5% αCD-added saline (SZ147 administration group), (10) OVA (5 μg) and SZ148 (0.256 μmol) dissolved or dispersed in 5% αCD-added saline (SZ148 administration group), each per mouse. Two week later, the secondary immunization was carried out by dorsal-subcutaneous administration of solutions or dispersions similar to those of the above-mentioned (1)-(10) again. […]
To a 96 well plate was added 5 μg/ml OVA at 100 µl/well, and the mixture was incubated at 4° C. overnight. After incubation, the mixture was washed three times with 200 μl of PBS-T (PBS (phosphate buffered saline)+0.05% (v/v) Tween 20) per well, and blocked with 100 μl of 5% FCS (fetal calf serum)/PBS solution per well at room temperature for 1-2 hr. Thereafter, the mixture was washed three times with PBS-T (200 μl/well), a diluted serum sample (100 l/well) or the same amount of 5% FCS/PBS solution as a control was added, and the mixture was incubated at 37° C. for 1 hr. To calculate concentration of the antibody, the standard of an anti-OVA-specific IgG1 subclass antibody diluted with 2% FCS/PBS solution was added at 100 ng/ml, 50 ng/ml, 25 ng/ml, 12.5 ng/ml, 6.25 ng/ml, 3.125 ng/ml, 1.56 ng/ml, 0.781 ng/ml, 0.391 ng/ml, 0.195 ng/ml, 0.098 ng/ml, 0 ng/ml, per 1 well. When an anti-OVA-specific IgG2a subclass antibody was measured, the standard of an anti-OVA-specific IgG2a subclass antibody was added at 50 ng/ml, 25 ng/ml, 12.5 ng/ml, 6.25 ng/ml, 3.125 ng/ml, 1.56 ng/ml, 0.781 ng/ml, 0.391 ng/ml, 0.195 ng/ml, 0.098 ng/ml, 0.049 ng/ml, 0 ng/ml, per 1 well. Thereafter, similar to the samples, the mixture was washed five times with PBS-T (200 μl/well), a diluted biotinylated anti-mouse IgG1 antibody and IgG2a antibody were added (100 μl/well), and the mixture was incubated at 37° C. for 45 min. Thereafter, the mixture was washed five times with PBS-T (200 μl/well), a diluted anti-biotin-HRP antibody was added (100 μl/well), and the mixture was incubated at 37° C. for another 30 min. Thereafter, the mixture was washed five times with PBS-T (200 μl/well), TMB substrate solution was added (100 μl/well), and the mixture was incubated at room temperature for 10-15 min. Thereafter, a reaction quenching liquid (2N sulfuric acid solution) was added (50 l/well) to discontinue a color developing reaction, and the absorbance (OD Value=450 nm) was measured by a microplate reader. A standard curve was drawn from the measured OD values, and the concentration was calculated. […]

Setting [4] is: conclusion from IgG1/IgG2a after primary immunization.
Where [5] appears, read: conclusion from IgG1/IgG2a after secondary immunization.

Consider 14 molecules from patent US20180311342A1, “IMMUNOSTIMULATING AGENT” (AJINOMOTO CO., INC., priority 2017, published 2018).

On to `CCCCCCCCCCCCCCCC(=O)N[C@@H](CCCNC(=N)N)C(=O)NCCCCCCCC.Cl` [SZ181, N-[(1S)-4-guanidino-1-(octylcarbamoyl)butyl]hexadecanamide hydrochloride], for which the “anti-OVA-specific IgG1 subclass antibody production” value in assay [1] is given as “a tendency toward increase was found”. Further, the “anti-OVA-specific IgG2a subclass antibody production” value in assay [2] was “a tendency toward increase was found”. Further, the adjuvant activity result in assay [3] (setting [4]) and in assay [3] (setting [5]) was “have an adjuvant activity” each time.
Take `CCCCCCCCCCCCCCCCCC(=O)N[C@@H](CCCNC(=N)N)C(=O)NCCCCCCCC.Cl` [SZ182, N-[(1S)-4-guanidino-1-(octylcarbamoyl)butyl]octadecanamide hydrochloride]: the “anti-OVA-specific IgG1 subclass antibody production” value in assay [1] is “a tendency toward increase was found”. Further, the “anti-OVA-specific IgG2a subclass antibody production” value in assay [2] is listed as “a tendency toward increase was found”. Moreover, the adjuvant activity result in assay [3] (setting [4]) and in assay [3] (setting [5]) was “have an adjuvant activity” each time.
Consider `CCCCCCCCCCCCCCCCCCCC(=O)N[C@@H](CCCNC(=N)N)C(=O)NCCCCCCCC.Cl` [SZ183, N-[(1S)-4-guanidino-1-(octylcarbamoyl)butyl]icosanamide hydrochloride], for which the “anti-OVA-specific IgG1 subclass antibody production” value in assay [1] is on record as “significant enhancement”. Further, the “anti-OVA-specific IgG2a subclass antibody production” value in assay [2] is on record as “significant enhancement”. The adjuvant activity entry in assay [3] (setting [4]) and in assay [3] (setting [5]) was “have an adjuvant activity” throughout.
In the case of `CCCCCCCCCCCCCCCCCC(=O)N[C@@H](CCCCN)C(=O)NCCCCCCCC.Cl` [SZ184, N-[(1S)-5-amino-1-(octylcarbamoyl)pentyl]octadecanamide hydrochloride], the “anti-OVA-specific IgG1 subclass antibody production” value in assay [1] is reported as “a tendency toward increase was found”. For the same molecule, in assay [2], the “anti-OVA-specific IgG2a subclass antibody production” value was “a tendency toward increase was found”. The adjuvant activity result in assay [3] (setting [4]) and in assay [3] (setting [5]) was “have an adjuvant activity” each time.
For `CCCCCCCCCCCCCCCCCC(=O)N[C@@H](CCCCN)C(=O)NCCCCCCCCCCCC.Cl` [SZ185, N-[(1S)-5-amino-1-(dodecylcarbamoyl)pentyl]octadecanamide hydrochloride], in assay [1], the “anti-OVA-specific IgG1 subclass antibody production” value is listed as “significant enhancement”. Moreover, the “anti-OVA-specific IgG2a subclass antibody production” value in assay [2] is “significant enhancement”. Besides, the adjuvant activity entry in assay [3] (setting [4]) and in assay [3] (setting [5]) was “have an adjuvant activity” in each case.
On to `CCCCCCCCCCCCNC(=O)[C@H](CCCNC(=N)N)NC(=O)OCCCCCCCCCCCC.Cl` [SZ187, dodecyl N-[(1S)-1-(dodecylcarbamoyl)-4-guanidino-butyl]carbamate hydrochloride], for which the “anti-OVA-specific IgG1 subclass antibody production” value in assay [1] was “significant enhancement”. In addition, in assay [2], the “anti-OVA-specific IgG2a subclass antibody production” value is “significant enhancement”. Moreover, the adjuvant activity result in assay [3] (setting [4]) and in assay [3] (setting [5]) was “have an adjuvant activity” each time.
As for `CCCCCCCCCCCCCCCCOC(=O)N[C@@H](CCCCN)C(=O)NCCCCCCCC.Cl` [SZ188, hexadecyl N-[(1S)-5-amino-1-(octylcarbamoyl)pentyl]carbamate hydrochloride], the “anti-OVA-specific IgG1 subclass antibody production” value in assay [1] is reported as “a tendency toward increase was found”. Moreover, the “anti-OVA-specific IgG2a subclass antibody production” value in assay [2] was “a tendency toward increase was found”. Besides, the adjuvant activity result in assay [3] (setting [4]) and in assay [3] (setting [5]) was “have an adjuvant activity” throughout.
As to `CCCCCCCCCCCCCCCCOC(=O)N[C@@H](CCCCN)C(=O)NCCCCCCCCCCCC.Cl` [SZ189, hexadecyl N-[(1S)-5-amino-1-(dodecylcarbamoyl)pentyl]carbamate hydrochloride], the “anti-OVA-specific IgG1 subclass antibody production” value in assay [1] was “a tendency toward increase was found”. For the same molecule, the “anti-OVA-specific IgG2a subclass antibody production” value in assay [2] is listed as “a tendency toward increase was found”. For the same molecule, the adjuvant activity entry in assay [3] (setting [4]) and in assay [3] (setting [5]) was “have an adjuvant activity” throughout.
Consider `CCCCCCCCCCCCCCCCNC(=O)NCCCCNC(=N)N.Cl` [SZ190, 1-(4-guanidinobutyl)-3-hexadecyl-urea hydrochloride], for which, in assay [1], the “anti-OVA-specific IgG1 subclass antibody production” value was “a tendency toward increase was found”. Also, in assay [2], the “anti-OVA-specific IgG2a subclass antibody production” value is on record as “a tendency toward increase was found”. The adjuvant activity entry in assay [3] (setting [4]) and in assay [3] (setting [5]) was “have an adjuvant activity” each time.
Regarding `CCCCCCCCCCCCCCCCCC(=O)N[C@H](CCCNC(=N)N)C(=O)NCCCCCCCCCCCC.Cl` [SZ191, N-[(1R)-1-(dodecylcarbamoyl)-4-guanidino-butyl]octadecanamide hydrochloride], the “anti-OVA-specific IgG1 subclass antibody production” value in assay [1] was “significant enhancement”. Further, the “anti-OVA-specific IgG2a subclass antibody production” value in assay [2] was “significant enhancement”. The adjuvant activity entry in assay [3] (setting [4]) and in assay [3] (setting [5]) was “have an adjuvant activity” throughout.
For `CCCCCCCCCCCCCCCCNC(=O)N[C@H](CCCNC(=N)N)C(=O)NCCCCCCCCCCCC.Cl` [SZ193, (2R)—N-dodecyl-5-guanidino-2-(hexadecylcarbamoylamino)pentanamide hydrochloride], in assay [1], the “anti-OVA-specific IgG1 subclass antibody production” value is listed as “significant enhancement”. In addition, the “anti-OVA-specific IgG2a subclass antibody production” value in assay [2] is on record as “significant enhancement”. For the same molecule, the adjuvant activity entry in assay [3] (setting [4]) and in assay [3] (setting [5]) was “have an adjuvant activity” throughout.
As to `CCCCCCCCCCCCCCCC(=O)N[C@H](CCCCN)C(=O)NCCCCCCCCCCCC.Cl` [SZ194, N-[(1R)-5-amino-1-(dodecylcarbamoyl)pentyl]hexadecanamide hydrochloride], the “anti-OVA-specific IgG1 subclass antibody production” value in assay [1] is “tended to increase”. The “anti-OVA-specific IgG2a subclass antibody production” value in assay [2] is on record as “Significant enhancement”. The adjuvant activity result in assay [3] (setting [4]) and in assay [3] (setting [5]) was “have an adjuvant activity” throughout.
For the molecule `CCCCCCCCCCCCCCCCCC(=O)N[C@@H](CC(C)C)C(=O)NCCCCCCCCCCCC` [SZ195, N-[(1S)-1-(dodecylcarbamoyl)-3-methyl-butyl]octadecanamide], the “anti-OVA-specific IgG1 subclass antibody production” value in assay [1] was “tended to increase”. Moreover, the “anti-OVA-specific IgG2a subclass antibody production” value in assay [2] is reported as “tended to increase”. Moreover, the adjuvant activity result in assay [3] (setting [4]) and in assay [3] (setting [5]) was “have an adjuvant activity” each time.
With `CCCCCCCCCCCCCCCCCC(=O)N[C@@H](CC(C)C)C(=O)NCCCCCCCC` [SZ196, N-[(1S)-3-methyl-1-(octylcarbamoyl)butyl]octadecanamide], in assay [1], the “anti-OVA-specific IgG1 subclass antibody production” value is on record as “tended to increase”. For the same molecule, in assay [2], the “anti-OVA-specific IgG2a subclass antibody production” value was “tended to increase”. For the same molecule, the adjuvant activity entry in assay [3] (setting [4]) and in assay [3] (setting [5]) was “have an adjuvant activity” in each case.
